According to patent US12150930B2 (BDR Pharmaceuticals Int'l Pvt. Ltd., priority 2022, dated 2024):

What was measured:
[1] = API solubility study in solubilizers/solvents/co-solvents (formulation trials); format: physicochemical; settings: ethanol added after addition of API
From the text: During the selection of excipients for formulation of Enzalutamide oral solution, first it is required to select the excipients which are not covered by patent of Enzalutamide capsules and also excipients need to meet IIG limits and useful for product development.
In the present invention selection of Solubilizers based on different trials which are like Labrafac Lipophile WL-1349, Labrafil M1944 Cs, Maisine CC, Kolliphor RH 40, Tween 80, Castor Oil, Migloyl 812 etc.
Further, here in the present invention selection of Co-solvents also based on trials and experiments which are Propylene glycol, Polyethylene glycol 400, Poly ethylene glycol 200, Ethanol, Glycerine, Maisine CC etc.
Based on the API solubility study combination of Kolliphor RH 40 with Ethanol and Polyethylene 400 was taken for further study. […]
Process for the Preparation: • 1. Dispensed quantity of Polyoxyl 40 hydrogenated castor oil was taken and started heating with maintained temperature of 45° C. of product. Further, Dispensed quantity of glyceryl monolinoleate was added to material of above step under stirring mixing/homogenization process. • 2. […] Further, then dispensed quantity of Ethanol was added to above step of material and continued process of stirring/homogenization then added dispensed quantity of propylene glycol and continued the process till Enzalutamide was dissolved. […]

[2] = Stability of enzalutamide standard solution; format: physicochemical; settings: 25° C., in ACN diluted with dissolution medium
Description: In that, 25 ml of ACN was dissolved and diluted with ACN to volume. From this solution, 2 ml of solution was transferred to a 100 ml volumetric flask and diluted with dissolution medium to volume. The standard solution was found stable at 25° C. for 27 h. Sample solution was prepared by adding a 5 ml sample of the present invention in 900 ml of dissolution medium. Further, 2.0 ml of this solution was diluted with 100 ml of dissolution medium.

[3] = cited from earlier work
CACO2 monolayers = settings: across CACO2 monolayers; cited from earlier work

API solubilized during procedure [1]: approx. 80%
time for which the standard solution was found stable [2]: 27 h
Structure (SMILES): CNC(=O)c1ccc(N2C(=S)N(c3ccc(C#N)c(C(F)(F)F)c3)C(=O)C2(C)C)cc1F [Enzalutamide]
Biopharmaceutics Classification System (BCS) class ([3]; low solubility and high permeability): Class 2
effect of pH on enzalutamide solubility ([3]; physiological pH range): not affected by pH
mean apparent permeability coefficient (CACO2 monolayers): 310 nm/s
